The values below come from US4665095A, “Use of 2-[(3,5-dihalo-4-aminobenzyl)]imidazolines to stimulate alpha-1 adrenergic receptors and to treat nasal congestion” (Abbott Laboratories, priority 1985, dated 1987).

Molecules are shown by their SMILES. Structures can show the parent of a compound that is named as a salt.

Data set [1] deals with nasal mucosa. Conditions: background art; cited from earlier work.
The subject of data set [2] is nasal mucosa of rats. Description: Effect on Nasal Irritation in Rats. It is filed as in vivo, rat (CD strain). The protocol:
The product of Example 4 was dissolved in phosphate buffered normal saline and adjusted to a pH of approximately 7. The solution was prepared at the following concentrations: 0.05, 0.15, 0.5 and 1.5 percent. Groups of five male rats (CD strain) were administered each dose. The rats were approximately 5 weeks old at the start of treatment. Prior to dosing, ketaminehydrochloride was administered intraperitoneally to produce transient anesthesia to facilitate test compound administration. Rats in each group were given 0.04 mL/day of the appropriate solution for 14 days. The dosage was divided equally between both nostrils (i.e., 0.02 mL/nostril/day).

The subject of data set [3] is nasal resistance in anesthetized dogs. Description: Effect on airway (nasal) resistance in anesthetized dogs following intranasal spray administration. Type of data set: in vivo, beagle dog. Conditions: aerosol, mg per dog. As to the method:
(§1) a. Method Beagle dogs of either sex, weighing 9-12 kg were anesthetized with nembutal (30 mg/kg, intravenously) with supplemental doses administered throughout the experiment as required. The dogs were intubated with a cuffed endotracheal tube and were ventilated with room air by means of a Harvard respiration pump. Arterial blood pressure was recorded from a femoral artery using a Statham P23Gb pressure transducer. A tachygraphic recording of heart rate was obtained from the blood pressure signal.
(§2) A constant flow of air (2 liters/minute); provided by an anesthetic machine (CAECO) was administered into a nasal cavity through a 6 cm long plastic tube tapered to a diameter of 6 mm to fit into the right nostril. The air perfused the nasal cavity and exited through the mouth. The resistance to the air flow exerted by the large surface area of the nasal mucosa was measured as a nasal pressure in cm of water, using Model MP 45 Validyne transducer. […] Since the amount of drug administered in this way is extremely small and not directly measurable, the doses were calculated from the concentration of drug in the humidifier and volume of fluid used in each administration (in mg per dog). The nasal resistance, heart rate and blood pressure were monitored prior to and then 2 hours following the drug administration. […]

The nature of data set [4]: Blood pressure and heart rate in anesthetized dogs following intranasal spray administration. It is filed as in vivo, beagle dog. As to the method: as §1, §2
Where [5] appears, read: up to 1.5%, 0.04 mL/day intranasal, 14 days.

In the case of `c1ccc2c(CC3=NCCN3)cccc2c1` [naphazoline], the “irritation of the nasal mucosa” value in data set [1] was “often cause irritation of the nasal mucosa”.

As for `Cc1cc(C(C)(C)C)c(O)c(C)c1CC1=NCCN1` [oxymetazoline], the “toxicity or nasal injury” value in data set [2] (0.05% to 0.15% concentrations) was “did not cause any toxicity or nasal injury”. Further, the nasal mucosal injury result in data set [2] (0.5% and 1.5% concentration) is “induced nasal mucosal injury”. In data set [2] (0.5% and 1.5%, repeated administration), the “systemic side effects and deaths” value was “Systemic side effects and deaths occurred in most animals”. For the same compound, the “irritation of the nasal mucosa” value in data set [1] is “often cause irritation of the nasal mucosa”.

Consider `Nc1c(Cl)cc(CC2=NCCN2)cc1Cl` [Example 4, 2-[(3,5-Dichloro-4-aminobenzyl)]imidazoline hydrochloride], for which the “threshold dose producing decrease of nasal resistance” value in data set [3] is recorded as 0.00165 mg. Further, the systematic hemodynamic effects result in data set [4] (at the effective nasal decongestant dose) is given as “devoid of any systematic hemodynamic effects”. Moreover, the “elevation of the blood pressure above the base level” value in data set [4] (highest tested dose, 1.65 mg) is given as “approximately 10%”. Moreover, in data set [2] (setting [5]), the nasal mucosal injury entry is “no nasal mucosal injury” and the systemic toxic effects entry was “no nasal mucosal injury or any systemic toxic effects”.
